Assay results published in article PMC6161302, “Oral Bioavailability of Kinsenoside in Beagle Dogs Measured by LC-MS/MS: Improvement of Ex Vivo Stability of a Lactone-Containing Compound” (Pharmaceutics, 2018).
Read-outs that look alike come from different tables or passages of the source.

Legend:
[1] = Pharmacokinetic and bioavailability study of KD in beagle dogs (intravenous and oral); format: in vivo, beagle dog; details: for Tmax / AUC(0-t): beagle; for k el: read-out: λz (converted)
Source text: The validated method was applied to a preclinical pharmacokinetic and bioavailability study of KD in beagle dogs following intravenous and oral administration. The study protocol (Project ID: HUST-D-201802004) was approved on 5 March 2018 by the Animal Ethics Committee in Tongji Medical College, Huazhong University of Science and Technology (Wuhan, China). Six beagle dogs (3 males and 3 females) weighing 10.0 ± 2.0 kg were purchased from Ruikesen Experimental Animal Co., Ltd. (Wuhan, China). All dogs were individually housed at a temperature of 25 °C and 50% relative humidity under a 12 h light/dark cycle. A laboratory standard diet and water were provided ad libitum. After overnight fasting with unlimited access to water, the six beagle dogs were randomly divided into two groups. One group was intravenously injected via lateral saphenous vein with 3 mg/kg KD, while the other group was given a single oral dose of 3 mg/kg KD. After a 7-day washout period, each group received the other treatment. For intravenous administration, blood samples (approximately 1 mL) were collected via cephalic vein into 3 mL K2EDTA-containing vacutainer tubes at pre-dose and at 0.083, 0.25, 0.5, 0.75, 1, 1.25, 1.5, 2, 2.5, 3, 4, and 5 h after administration. For oral administration, blood samples (approximately 1 mL) were collected at pre-dose and at 0.25, 0.5, 0.75, 1, 1.25, 1.5, 2, 2.5, 3, 4, 5, 6, and 7 h post-dose. Blood samples were maintained on wet ice and centrifuged under 4 °C at 3500 × g for 5 min to obtain plasma. Plasma samples were immediately transferred to pre-cooled plastic Eppendorf tubes and stored at −80 °C until analyzed.
The pharmacokinetic parameters were calculated using noncompartmental analysis by Phoenix WinNonlin software (Version 6.4, Pharsight Corporation, Princeton, NC, USA). The maximum plasma concentration (Cmax) and time to reach Cmax (Tmax) were obtained directly from the plasma concentration time course. The area under the plasma concentration versus time curve (AUC) from time zero to the last measured time point (AUC0–t) and from time zero to infinity (AUC0–∞) were estimated using the log-linear trapezoidal rule, while the elimination half-life (t1/2), the total body clearance (CL), and the apparent volume of distribution (Vd) were processed by Phoenix WinNonlin software. Oral bioavailability (F) was calculated using the formula F = (AUCpo/AUCiv) × (Doseiv/Dosepo).

[2] = set-up: method as in PMID 26686829; details: cited from earlier work
liver microsomal enzyme = system: liver microsomal enzyme; set-up: method as in doi:10.5478/MSL.2015.6.2.48; details: cited from earlier work
[3] = Method-validation stability of kinsenoside in beagle dog plasma under various storage conditions; format: in vitro ADME
Method: The stability of stock solutions (2.5 mg/mL for KD and 1 mg/mL for IS) and working solutions (125 and 50,000 ng/mL for KD and 500 ng/mL for IS) was evaluated at room temperature for 6 h and at −80 °C for 31 days. The matrix stability was evaluated from three replicates of each QC sample stored in different conditions using freshly prepared calibration standards. The QC samples were analyzed after storage on wet ice for 2 h (short-term stability) and at −80 °C for 21 days (long-term stability). The freeze–thaw stability was determined after freezing at −80 °C and thawing on wet ice for three cycles. To evaluate the post-preparative stability, QC samples were analyzed after being held in the autosampler for 24 h at 4 °C. The samples for stability evaluation were considered stable if the deviation was within ±15% of the nominal concentration.

[4] = Stability of KD in fresh dog whole blood; format: in vitro ADME, beagle dog
Method: (§1) The stability of KD in fresh dog whole blood and plasma was studied by decreasing pH, lowering temperature, and adding different esterase inhibitors. All experiments were performed in triplicate using three different lots of fresh dog whole blood or plasma. To decrease the pH of the matrixes, 1% formic acid (FA) or 1% AA was individually added to the fresh blank whole blood or plasma with a ratio of 1:9. Likewise, DDVP, NaF, and PMSF were separately added to fresh blank whole blood or plasma to obtain a final concentration of 50 mM. After 5 min pre-incubation, KD was spiked with pretreated whole blood or plasma to obtain final concentrations of 15, 150, and 1500 ng/mL. The whole blood mixture was maintained at room temperature or on wet ice for 2 h except for samples of time zero, which were centrifuged immediately to collect plasma, while the plasma mixture was maintained at room temperature or on wet ice for 0, 2, and 6 h. Then, the obtained plasma samples were cleaned up using the previously mentioned sample preparation procedures. The remaining percentage of KD was calculated by dividing the plasma concentration of KD under different incubation conditions by the concentration of time zero samples [13].

[5] = Stability of KD in fresh dog plasma; format: in vitro ADME, beagle dog
Method: as §1

[6] = both sexes, dog, plasma, beagle dogs, intravenous, 3 mg/kg
[7] = both sexes, dog, plasma, beagle dogs, oral, 3 mg/kg
[8] = plasma samples after three freeze–thaw cycles, nominal 15 ng/mL
[9] = plasma samples after three freeze–thaw cycles, nominal 150 ng/mL
[10] = plasma samples after three freeze–thaw cycles, nominal 1500 ng/mL
[11] = plasma samples on wet ice for 2 h, nominal 15 ng/mL
[12] = plasma samples on wet ice for 2 h, nominal 150 ng/mL
[13] = plasma samples on wet ice for 2 h, nominal 1500 ng/mL
[14] = plasma samples stored at −80 °C for 21 days, nominal 15 ng/mL
[15] = plasma samples stored at −80 °C for 21 days, nominal 150 ng/mL
[16] = plasma samples stored at −80 °C for 21 days, nominal 1500 ng/mL
[17] = post-preparative samples stored at 4 °C for 24 h, nominal 15 ng/mL
[18] = post-preparative samples stored at 4 °C for 24 h, nominal 150 ng/mL
[19] = post-preparative samples stored at 4 °C for 24 h, nominal 1500 ng/mL

O=C1C[C@@H](O[C@@H]2O[C@H](CO)[C@@H](O)[C@H](O)[C@H]2O)CO1 [kinsenoside, Kinsenoside]
Tmax ([1]; both sexes, dog, plasma, iv, 3 mg/kg, beagle dogs): 5 min
AUC(0-t) ([1]; both sexes, dog, plasma, iv, 3 mg/kg, beagle dogs, intravenous, 3 mg/kg, read-out: AUC0–t): 6820 ± 295 ng·h/mL
AUC(0-t) ([1]; both sexes, dog, plasma, iv, 3 mg/kg, beagle dogs, intravenous, 3 mg/kg, read-out: mean AUC0-t (converted)): 114 ng·h/mL
Tmax ([1]; both sexes, dog, plasma, po, 3 mg/kg, beagle dogs): ~62.4 min
AUC(0-t) ([1]; both sexes, dog, plasma, po, 3 mg/kg, beagle dogs, oral, 3 mg/kg, read-out: AUC0–t): 1880 ± 17.6 ng·h/mL
AUC(0-t) ([1]; both sexes, dog, plasma, po, 3 mg/kg, beagle dogs, oral, 3 mg/kg, read-out: mean AUC0-t (converted)): 31.3 ng·h/mL
AUC(0-inf) [1, 6]: 6830 ± 295 ng·h/mL
Cmax [1, 6]: 11400 ng/mL
Vd [1, 6]: 0.3 ± 0.0171 L/kg
clearance [1, 6]: 7.33 mL/min/kg
half-life [1, 6]: 28.2 ± 0.78 min
k el [1, 6]: 0.000408 s⁻¹
bioavailability ([1]; both sexes, dog, plasma, beagle dogs, oral 3 mg/kg vs intravenous 3 mg/kg, read-out: Bioavailability (absolute oral)): 27.6%
AUC(0-inf) [1, 7]: 1910 ± 42.5 ng·h/mL
Cmax [1, 7]: 965 ± 59.7 ng/mL
half-life [1, 7]: 54.9 ± 5.64 min
k el [1, 7]: 0.000212 s⁻¹
bioavailability of KD relative to the majority of extensively researched isoflavone glycosides ([1]; comparison with literature values): at least 4 fold
stability in rat plasma (ex vivo) [2]: unstable
stability against liver microsomal enzyme-associated metabolism (liver microsomal enzyme): stable
Accuracy (stability, % of nominal) [3, 8]: 89.53%
Calculated Conc. [3, 8]: 13.43 ± 0.46 ng/mL
Accuracy (stability, % of nominal) [3, 9]: 90.89%
Calculated Conc. [3, 9]: 136.33 ± 4.50 ng/mL
Accuracy (stability, % of nominal) [3, 10]: 92.44%
Calculated Conc. [3, 10]: 1386.67 ± 24.94 ng/mL
Accuracy (stability, % of nominal) [3, 11]: 95.11%
Calculated Conc. [3, 11]: 14.27 ± 0.74 ng/mL
Accuracy (stability, % of nominal) [3, 12]: 93.87%
Calculated Conc. [3, 12]: 140.80 ± 2.98 ng/mL
Accuracy (stability, % of nominal) [3, 13]: 91.61%
Calculated Conc. [3, 13]: 1374.13 ± 24.63 ng/mL
Accuracy (stability, % of nominal) [3, 14]: 90.89%
Calculated Conc. [3, 14]: 13.63 ± 0.36 ng/mL
Accuracy (stability, % of nominal) [3, 15]: 91.78%
Calculated Conc. [3, 15]: 137.67 ± 2.62 ng/mL
Accuracy (stability, % of nominal) [3, 16]: 93.78%
Calculated Conc. [3, 16]: 1406.67 ± 26.25 ng/mL
Accuracy (stability, % of nominal) [3, 17]: 89.47%
Calculated Conc. [3, 17]: 13.42 ± 0.37 ng/mL
Accuracy (stability, % of nominal) [3, 18]: 91.67%
Calculated Conc. [3, 18]: 137.50 ± 4.99 ng/mL
Accuracy (stability, % of nominal) [3, 19]: 88.89%
Calculated Conc. [3, 19]: 1333.33 ± 34.60 ng/mL
KD remaining ([4]; 2 h incubation at room temperature): 60%
KD remaining ([4]; 2 h incubation on wet ice, three concentration levels (15, 150, 1500 ng/mL)): around 90%
KD remaining ([5]; dog plasma, 2 h incubation on wet ice): more than 90%
percentage remaining of KD ([5]; neutral and acidified dog plasma, 6 h incubation on wet ice): around 85%
